Consider four compounds from US12721800B2, “Phosphonates and N-halamines compositions for tartar removal” (O.Y.M. INNOVATION LTD., priority 2021, dated 2026).

The nature of assay [1]: Effect of SUTP, poly(StBP) NPs and γ-Glu-BP on human teeth (incubation, brushing, overnight re-incubation). The note with it: for precipitate of tartar during incubation: 1 mg/ml aqueous solution, 4 ml, pH=4, RT, after 15 min of incubation; for cleaning of teeth from tartar (photographs): 1 mg/ml, pH=4, RT 1 hr, brushing, new solution overnight, washed with DDW. On the procedure:
The effect of SUTP (Example 1), poly(StBP) NPs (Example 4), and γ-Glu-BP (Example 2) on human teeth was evaluated as followed:
Teeth were incubated in three separate aqueous solutions of: SUTP, poly(StBP) NPs, and γ-Glu-BP (1 mg/ml, 4 ml, pH=4) at RT for 1 hr. […] The teeth were then brushed by a toothbrush to remove the remain tartar layer on the teeth and were incubated in new solutions of SUTP, poly(StBP) NPs, and γ-Glu-BP overnight. Then, the teeth were washed by DDW and were photographed.

Assay [2] in a line: Comparison of succinyl tetraphosphonate and two industrial pyrophosphates on human teeth having mature tartar. The note with it: for mature tartar removal (images before and after treatment): 1 mg/ml in PBS, pH=7, 5 ml, shaken 10 min, then brushed 2 min. On the procedure:
The effect of succinyl tetraphosphonate and two types of industrial pyrophosphates on human teeth having mature tartar as were evaluated as followed:
Human teeth were incubated and shaken in 5 ml solution of PBS with SUTP ((a) see structure below), sodium pyrophosphate tetrabasic ((b) see structure below) and sodium pyrophosphate dibasic ((c) see structure below) (1 mg/ml, pH=7) for 10 min. Then, the teeth were brushed by a toothbrush for 2 min. Images were captured before and after treatment FIG. 6 (with SUTP), FIG. 7 (with sodium pyrophosphate tetrabasic), and FIG. 8 (with sodium pyrophosphate dibasic).

The nature of assay [3]: Effect of halamine NPs and SUTP on mature tartar removal on human teeth (10 min stirring, then brushing). On the procedure:
The effect of halamines nanoparticles (as presented in Table 1) and SUTP compounds on mature tartar removal on human teeth were studied. 5 mL of each aqueous suspension were added to a 20 mL vial, and a tooth with tartar was added to each vial. Then, the solutions were stirred for 10 min at room temperature. After 10 minutes the teeth were brushed using a soft toothbrush and a photo of the tooth were taken.

On to `O=P(O)(O)C(O)(CCC(O)(P(=O)(O)O)P(=O)(O)O)P(=O)(O)O` [SUTP, Succinyl tetra phosphonate], for which, in assay [1], the “precipitate of tartar during incubation” value was “a new precipitate of tartar was observed spontaneously”. Besides, the “cleaning of teeth from tartar (photographs)” value in assay [1] is “cleaning of dirty teeth from tartar”. The “mature tartar removal (images before and after treatment)” value (from here on “mature tartar removal”) in assay [2] is “a significant mature tartar was removed”. Also, the “cloudiness of the solution after the teeth brushing (tartar removed from the teeth)” value in assay [2] (1 mg/ml, solution captured after teeth brushing) is reported as “significantly cloudier than the others”. Further, the “tartar removal from tooth” value in assay [3] (1 mg/mL, pH 3-4, 10 min stirring and brushing) is given as “partially clean”; in assay [3] (1 mg/mL, pH 6-7, 10 min stirring and brushing), “partially clean”; in assay [3] (10 mg/mL, pH 3-4, 10 min stirring and brushing) it was “completely clean”.

In the case of `O=P([O-])(O)OP(=O)([O-])O.[Na+].[Na+]` [Sodium pyrophosphate dibasic, sodium pyrophosphate dibasic, reference compound], the “mature tartar removal” value in assay [2] is on record as “did not remove the mature tartar”.

On to `O=P([O-])([O-])OP(=O)([O-])[O-].[Na+].[Na+].[Na+].[Na+]` [Sodium pyrophosphate tetrabasic, sodium pyrophosphate tetrabasic, reference compound], for which, in assay [2], the “mature tartar removal” value is given as “did not remove the mature tartar”.

For the compound `NC(CCC(O)(P(=O)(O)O)P(=O)(O)O)C(=O)O` (centres unmarked) [γ-Glu-BP], in assay [1], the “precipitate of tartar during incubation” value is on record as “a new precipitate of tartar was observed spontaneously” and the “cleaning of teeth from tartar (photographs)” value is “cleaning of dirty teeth from tartar”.
